Drawing on ChEMBL document CHEMBL1221277, “Design, synthesis and anticholinesterase activity of a novel series of 1-benzyl-4-((6-alkoxy-3-oxobenzofuran-2(3H)-ylidene) methyl) pyridinium derivatives” (Bioorg Med Chem, 2010), this text covers IC50 for 21 molecules.

For this assay, the target named is Acetylcholinesterase (Electrophorus electricus, UniProt O42275). The assay is described as follows: Inhibition of electric eel AChE by Ellman's method.
Chain of Acetylcholinesterase (O42275 whole entry): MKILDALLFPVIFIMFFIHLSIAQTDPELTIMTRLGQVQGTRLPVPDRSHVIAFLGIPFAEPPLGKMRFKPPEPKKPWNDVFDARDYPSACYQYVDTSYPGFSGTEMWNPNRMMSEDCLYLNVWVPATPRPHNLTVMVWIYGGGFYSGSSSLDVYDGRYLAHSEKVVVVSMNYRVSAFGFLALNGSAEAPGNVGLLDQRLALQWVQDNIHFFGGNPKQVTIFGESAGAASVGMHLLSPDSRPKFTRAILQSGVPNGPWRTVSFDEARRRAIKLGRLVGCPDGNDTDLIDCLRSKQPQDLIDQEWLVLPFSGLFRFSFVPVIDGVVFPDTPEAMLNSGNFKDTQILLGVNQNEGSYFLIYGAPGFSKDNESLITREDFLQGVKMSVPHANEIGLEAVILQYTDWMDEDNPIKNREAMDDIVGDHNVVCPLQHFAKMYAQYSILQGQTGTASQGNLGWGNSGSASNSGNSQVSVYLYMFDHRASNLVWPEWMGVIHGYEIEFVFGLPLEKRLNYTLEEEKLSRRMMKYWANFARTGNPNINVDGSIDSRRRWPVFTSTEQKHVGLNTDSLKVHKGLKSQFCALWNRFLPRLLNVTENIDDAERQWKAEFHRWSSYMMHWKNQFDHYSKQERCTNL

Turning to `CCCOc1ccc2c(c1)O/C(=C\c1cc[n+](Cc3ccc(C)cc3)cc1)C2=O`, 612 nM corresponded to half-maximal inhibition (IC50).
`CCOc1ccc2c(c1)O/C(=C\c1cc[n+](Cc3ccc(C)cc3)cc1)C2=O` came in with an IC50 of 790 nM.
Then `CCCOc1ccc2c(c1)O/C(=C\c1cc[n+](Cc3ccccc3)cc1)C2=O`, with 80 nM; and `CCCOc1ccc2c(c1)O/C(=C\c1cc[n+](Cc3ccccc3F)cc1)C2=O`, with 50 nM; and `CCCOc1ccc2c(c1)O/C(=C\c1cc[n+](Cc3cccc(F)c3)cc1)C2=O`, with 107 nM.
Then `CCCOc1ccc2c(c1)O/C(=C\c1cc[n+](Cc3ccc(F)cc3)cc1)C2=O`, with 68 nM; and `CCCOc1ccc2c(c1)O/C(=C\c1cc[n+](Cc3ccccc3C)cc1)C2=O`, with 328 nM; and `CCCOc1ccc2c(c1)O/C(=C\c1cc[n+](Cc3cccc(C)c3)cc1)C2=O`, with 234 nM.
As for `COc1ccc2c(c1)O/C(=C\c1cc[n+](Cc3ccc(C)cc3)cc1)C2=O`, the half-inhibitory concentration (IC50) worked out at 475 nM.
Under `CCOc1ccc2c(c1)O/C(=C\c1cc[n+](Cc3ccccc3)cc1)C2=O` stands 63 nM; under `CCOc1ccc2c(c1)O/C(=C\c1cc[n+](Cc3ccccc3F)cc1)C2=O`, 32 nM.
Then `CCOc1ccc2c(c1)O/C(=C\c1cc[n+](Cc3cccc(F)c3)cc1)C2=O`, with 48 nM; and `CCOc1ccc2c(c1)O/C(=C\c1cc[n+](Cc3ccc(F)cc3)cc1)C2=O`, with 51 nM.
Under `CCOc1ccc2c(c1)O/C(=C\c1cc[n+](Cc3ccccc3C)cc1)C2=O` stands 546 nM; under `CCOc1ccc2c(c1)O/C(=C\c1cc[n+](Cc3cccc(C)c3)cc1)C2=O`, 399 nM.
The molecule `COc1ccc2c(c1)O/C(=C\c1cc[n+](Cc3ccccc3)cc1)C2=O` registered an IC50 of 41 nM.
Under `COc1ccc2c(c1)O/C(=C\c1cc[n+](Cc3ccccc3F)cc1)C2=O` stands 10 nM; under `COc1ccc2c(c1)O/C(=C\c1cc[n+](Cc3cccc(F)c3)cc1)C2=O`, 60 nM; under `COc1ccc2c(c1)O/C(=C\c1cc[n+](Cc3ccc(F)cc3)cc1)C2=O`, 22 nM.
Then `COc1ccc2c(c1)O/C(=C\c1cc[n+](Cc3ccccc3C)cc1)C2=O`, with 68 nM; and `COc1ccc2c(c1)O/C(=C\c1cc[n+](Cc3cccc(C)c3)cc1)C2=O`, with 123 nM.
